The record followed here is ChEMBL document CHEMBL1201862, “PubChem BioAssay data set” (2004).

Structures are written as SMILES.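 Step 1: Grow cells in 96-well plates. Step 2: Expose to compound for 48 hours at 5 concentrations. Step 3: Interpolate endpoints linearly; if unreached, use highest concentration. The concentration for 50% growth inhibition is given as GI50.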 Active and inactive are the calls of the source. No stated cut-off is given here; in the data, active = GI50 up to about 1.1 µM and inactive = higher.

Among the test systems are HL-60; NCI/ADR-RES; CCRF-CEM; SN12C; A498; LOX IMVI; OVCAR-3; 786-0; HCC 2998; CAKI-1; MDA-N; MDA-MB-231; SR; SF-539; K562; OVCAR-8; Hs-578T; SK-MEL-28; HOP-62; SNB-75.
Experiment in all cases: NCI-60 cell line screen, 48 h

On to `Cc1ccc2c(c1C)-c1c(ccc(C)c1C)C(=O)C2=O`, for which the GI50 is 0.219 µM (active) in the assay with HL-60; 0.151 µM (active) in the assay with NCI/ADR-RES; 0.238 µM (active) in the assay with CCRF-CEM; 0.817 µM (active) in the assay with SN12C; 1.87 µM (inactive) in the assay with A498; 0.304 µM (active) in the assay with LOX IMVI. Besides, the GI50 is 0.296 µM (active) in the assay on OVCAR-3; 0.358 µM (active) in the assay on 786-0; 3.7 µM (inactive) with HCC 2998; 0.662 µM (active) in the assay with CAKI-1; 0.173 µM (active) in the assay with MDA-N; 1.62 µM (inactive) in the assay with MDA-MB-231. Further, the GI50 with SR was 0.107 µM (active); in the assay on SF-539, 0.21 µM (active); with K562 it was 0.266 µM (active); in the assay with OVCAR-8, 0.253 µM (active); in the assay on Hs-578T, 0.342 µM (active); with SK-MEL-28 it was 0.92 µM (active). For the same molecule, the GI50 in the assay on HOP-62 was 1.39 µM (inactive).
As for `N=C(N)SCc1ccc(N=C=S)cc1`, the GI50 with HL-60 is 5.62 µM (inactive); with NCI/ADR-RES it was 16.9 µM (inactive); in the assay on CCRF-CEM it was 6.93 µM (inactive); with SNB-75, 10.2 µM (inactive); with SN12C, 14.5 µM (inactive); with A498 it was 13.9 µM (inactive). The GI50 with LOX IMVI was 12.8 µM (inactive); with 786-0, 13.8 µM (inactive); in the assay on HCC 2998, 16.6 µM (inactive); in the assay with CAKI-1, 12.7 µM (inactive); with MDA-N it was 13.7 µM (inactive); with MDA-MB-231 it was 7.74 µM (inactive). In addition, the GI50 with SR is 17.6 µM (inactive); in the assay on SF-539, 14.1 µM (inactive); in the assay on K562, 11.7 µM (inactive); in the assay on OVCAR-8, 15.2 µM (inactive); in the assay on Hs-578T, 12.6 µM (inactive); in the assay on SK-MEL-28, 14.6 µM (inactive). The GI50 with HOP-62 is 16.6 µM (inactive).
For `Cc1c(C)c2c(c(N)c1C#N)C(=O)N(NC(=O)c1ccccc1)C2=O`, the GI50 in the assay on HL-60, in the assay on NCI/ADR-RES, with CCRF-CEM, with SNB-75, in the assay with SN12C and in the assay on A498 was > 100 µM (inactive) each time. Moreover, the GI50 in the assay with LOX IMVI, in the assay with OVCAR-3, with 786-0, with HCC 2998, in the assay on CAKI-1 and in the assay with MDA-N was > 100 µM (inactive) in each case. Further, the GI50 with MDA-MB-231, in the assay on SR, in the assay on SF-539, in the assay with K562, in the assay with OVCAR-8 and in the assay on Hs-578T was > 100 µM (inactive) in each case. Besides, the GI50 in the assay with SK-MEL-28 was > 100 µM (inactive).
As for `C[C@]12[C@@H]3CC[C@H]1[C@@H](OC(=O)Nc1cc([N+](=O)[O-])cc([N+](=O)[O-])c1)C(=O)N2CC3`, the GI50 in the assay on HL-60 was 62.8 µM (inactive); with NCI/ADR-RES, > 100 µM (inactive); in the assay on CCRF-CEM it was > 100 µM (inactive); with SNB-75, 19.6 µM (inactive); with SN12C it was > 100 µM (inactive); in the assay with A498 it was > 100 µM (inactive). Further, the GI50 in the assay with LOX IMVI, in the assay on 786-0, in the assay on HCC 2998, with CAKI-1, with MDA-N and with MDA-MB-231 was > 100 µM (inactive) throughout. In addition, the GI50 in the assay with SR, in the assay on K562, in the assay on OVCAR-8, in the assay with Hs-578T, with SK-MEL-28 and in the assay with HOP-62 was > 100 µM (inactive) each time.
For the molecule `C/C=C(\C)C(=O)OC1CC(OC(C)=O)C2(C(=O)OC)COC3C2C1(C)C1C2(C(=O)OC)OCC1(C3O)C1(O)C3CC(C4(O)C=COC4O3)C1(C)O2` (configuration not stated), the GI50 with HL-60 was 92 µM (inactive); in the assay on NCI/ADR-RES it was > 100 µM (inactive); in the assay on SNB-75, > 100 µM (inactive); with SN12C it was > 100 µM (inactive); in the assay with A498, > 100 µM (inactive); in the assay on LOX IMVI it was > 100 µM (inactive). Also, the GI50 in the assay on OVCAR-3 is > 100 µM (inactive); in the assay on 786-0, > 100 µM (inactive); in the assay on HCC 2998, 62.5 µM (inactive); in the assay with CAKI-1, > 100 µM (inactive); in the assay on MDA-N it was 34.4 µM (inactive); in the assay with MDA-MB-231, > 100 µM (inactive). For the same molecule, the GI50 in the assay with SR, in the assay on SF-539, in the assay with K562, in the assay with OVCAR-8, in the assay on Hs-578T and in the assay with SK-MEL-28 was > 100 µM (inactive) throughout. Besides, in the assay on HOP-62, the GI50 is > 100 µM (inactive).
On to `Cc1ccc(/N=C2\SC(=NN(C)C)S\C2=N/c2ccc(C)cc2)cc1`, for which the GI50 in the assay with HL-60, with NCI/ADR-RES, in the assay on CCRF-CEM, in the assay on SNB-75, with SN12C and in the assay with A498 was > 100 µM (inactive) in each case. The GI50 with LOX IMVI, in the assay on 786-0, in the assay on HCC 2998, in the assay on CAKI-1, in the assay with MDA-N and in the assay on MDA-MB-231 was > 100 µM (inactive) each time. Further, the GI50 with SR, in the assay with SF-539, with K562, with OVCAR-8, in the assay with Hs-578T and in the assay with SK-MEL-28 was > 100 µM (inactive) throughout. Further, the GI50 in the assay on HOP-62 was > 100 µM (inactive).
With `CNc1ccc(C(=O)CC(O)CCC(C)C2OC(=O)CC(O)CC(=O)CC(O)CC(O)CC(O)CC(O)CC3(O)CC(O)C(C(=O)N4CCOCC4)C(CC(OC4OC(C)C(O)C(N)C4O)\C=C/C=C\C=C/C=C/C=C/C=C\C=C/C2C)O3)cc1` (configuration not stated), the GI50 in the assay with HL-60 was 0.373 µM (active); in the assay on NCI/ADR-RES, 0.43 µM (active); with SNB-75, 0.409 µM (active); in the assay with SN12C, 0.229 µM (active); in the assay with A498, 0.147 µM (active); in the assay with LOX IMVI it was 0.243 µM (active). Moreover, the GI50 was 0.435 µM (active) with OVCAR-3; 0.325 µM (active) in the assay with 786-0; 0.374 µM (active) in the assay on HCC 2998; 0.227 µM (active) in the assay on CAKI-1; 0.304 µM (active) with MDA-N; 0.236 µM (active) with MDA-MB-231. Moreover, the GI50 in the assay on SR is 0.296 µM (active); in the assay with SF-539, 0.351 µM (active); in the assay with K562, 0.378 µM (active); with OVCAR-8, 0.376 µM (active); in the assay on Hs-578T, 0.294 µM (active); in the assay with SK-MEL-28 it was 0.186 µM (active). In the assay with HOP-62, the GI50 was 0.351 µM (active).
On to `NS(=O)(=O)c1ccc(N2C(=O)C(=O)N(c3ccccc3)C2=S)cc1`, for which the GI50 with HL-60 is > 100 µM (inactive); with NCI/ADR-RES, > 100 µM (inactive); in the assay on CCRF-CEM it was > 100 µM (inactive); with SNB-75, 74.3 µM (inactive); with SN12C, > 100 µM (inactive); in the assay with A498 it was > 100 µM (inactive). In addition, the GI50 in the assay with LOX IMVI, with 786-0, with HCC 2998, in the assay with CAKI-1, in the assay on MDA-N and with MDA-MB-231 was > 100 µM (inactive) in each case. In addition, the GI50 in the assay on SR is 18.9 µM (inactive); in the assay with SF-539, > 100 µM (inactive); with K562, > 100 µM (inactive); in the assay on OVCAR-8 it was > 100 µM (inactive); in the assay with Hs-578T, > 100 µM (inactive); in the assay on SK-MEL-28 it was > 100 µM (inactive). The GI50 in the assay on HOP-62 is > 100 µM (inactive).
In the case of `O=C(NC(Cc1c[nH]c2ccccc12)C(=O)O)/C(=C/c1ccccc1O)NC(=O)c1ccccc1` (configuration not stated), the GI50 in the assay on HL-60 was > 100 µM (inactive); in the assay on NCI/ADR-RES, 13.9 µM (inactive); in the assay with CCRF-CEM it was > 100 µM (inactive); in the assay with SNB-75, 17.4 µM (inactive); in the assay on SN12C, 24.7 µM (inactive); with A498, > 100 µM (inactive). In addition, the GI50 in the assay with LOX IMVI was 33 µM (inactive); in the assay on 786-0, 18.6 µM (inactive); in the assay with HCC 2998 it was 42.2 µM (inactive); with CAKI-1, 18.8 µM (inactive); in the assay on MDA-N it was 7.05 µM (inactive); in the assay on MDA-MB-231 it was 21 µM (inactive). The GI50 in the assay on SR is > 100 µM (inactive); in the assay on SF-539 it was 16.1 µM (inactive); with K562, > 100 µM (inactive); with OVCAR-8, 15.5 µM (inactive); in the assay on Hs-578T it was 24.6 µM (inactive); in the assay with SK-MEL-28, > 100 µM (inactive).
In the case of `C[n+]1c(-c2ccc(/C=N\Nc3ccnc(N/N=C/c4ccc(-c5cn6ccsc6[n+]5C)cc4)n3)cc2)cn2ccsc21`, the GI50 in the assay with HL-60 is 24.2 µM (inactive); in the assay with NCI/ADR-RES it was 51.2 µM (inactive); with CCRF-CEM, 18.3 µM (inactive); in the assay on SNB-75, 34 µM (inactive); with SN12C, 27.1 µM (inactive); in the assay on A498, 17.1 µM (inactive). The GI50 is > 100 µM (inactive) in the assay with OVCAR-3; 10.9 µM (inactive) with 786-0; 37.2 µM (inactive) in the assay on HCC 2998; 22.7 µM (inactive) with CAKI-1; 2.96 µM (inactive) with MDA-N; 15.2 µM (inactive) in the assay on MDA-MB-231. Also, the GI50 in the assay with SR was 12.6 µM (inactive); in the assay with SF-539 it was 11.6 µM (inactive); with K562, 8.71 µM (inactive); in the assay with OVCAR-8, 27.4 µM (inactive); in the assay on Hs-578T, 84.1 µM (inactive); with HOP-62, 18.1 µM (inactive).
